Values quoted from earlier work, collected in US20260102351A1, “LYOPHILIZED FORMULATION OF CROFELEMER AND METHODS OF TREATMENT USING THE SAME” (priority 2022, published 2026).

Details: human, in vivo

## Crofelemer
  absorption from the GI tract: little or no absorption
  systemic bioavailability in humans: virtually no systemic bioavailability
  tolerability: well tolerated
